Holding throughout (format): physicochemical
One data set can be described thus: Acid number (JIS C2101). The procedure: According to JIS C2101, the acid number of ester A1 and the like was measured.
The next data set is described as follows: Pour point (JIS K2269). The procedure:
According to JIS K2269, the pour point of ester A1 and the like was measured.

The nature of data set [1]: Two-layer separation temperature of ester A1 to A8 and R32 refrigerant. The conditions noted are these: ester 2 g + R32 refrigerant 6 g, range -60°C to +40°C. The method, then:
Using the aforementioned ester A1 to ester A8 as a refrigerating machine oil, a two-layer separation temperature of ester A1 to ester A8 and R32 refrigerant was measured as follows. To be specific, any of ester A1 to ester A8 (2 g) and R32 refrigerant (6 g) were sealed in a pressure-resistant glass tube and cooled from 40°C at a rate of 1°C/min by using an ethanol bath containing dry ice. The temperature at which ester and R32 refrigerant was separated in two layers was measured within the range of -60°C to +40°C by visual observation. One with a two-layer separation temperature of +40°C or above was evaluated as ×, +40°C to -10°C as ○, and - 10°C or below as ⊙.

Data set [2] in a line: Cloud point of additive in 1,1,1,3,3-pentafluorobutane/ethyl acetate (JIS 2269). To be noted: 10 mass % in 1,1,1,3,3-pentafluorobutane/ethyl acetate 75/25 (mass ratio). The method, then: As the aforementioned additive, any can be used as long as it has a cloud point of not less than -30°C when measured under the aforementioned conditions. Only one kind of the aforementioned additive may be used or two or more kinds thereof may be used in combination. […] The cloud point of the aforementioned additive as measured under the above-mentioned conditions is preferably not less than -20°C, more preferably not less than -15°C. The cloud point can be measured according to JIS 2269 "Testing Methods for Pour Point and Cloud Point of Crude Oil and Petroleum Products".
The cloud point when the additive (triphenyl phosphate and glycerol monooleate) used in the production of the below-mentioned refrigerating machine oil composition was dissolved at a concentration of 10 mass % in a mixed solvent of 1,1,1,3,3-pentafluorobutane and ethyl acetate at a mass ratio (1,1,1,3,3-pentafluorobutane/ethyl acetate) of 75/25 was measured according to JIS 2269. The cloud point of triphenyl phosphate measured under these conditions was -3°C and the cloud point of glycerol monooleate was 25°C.

Where only a bound is given, the exact number is not on record here.

Take `CCCCOC(=O)CC(O)(CC(=O)OCCCC)C(=O)OCCCC` [ester A6]: the acid number in the data set “Acid number (JIS C2101)” is reported as 0.1 or below mgKOH/g. In the data set “Pour point (JIS K2269)”, this molecule came in with a pour point of -50 °C. The two-layer separation temperature in data set [1] (cooled from 40°C at 1°C/min, visual) is at most -60 °C. Moreover, the “two-layer separation temperature (evaluation)” value in data set [1] was “⊙ (- 10 °C or below as ⊙)”.
In the case of `O=P(Oc1ccccc1)(Oc1ccccc1)Oc1ccccc1` [triphenyl phosphate], in data set [2], the cloud point was -3 °C.
`CCCCCCCC/C=C\CCCCCCCC(=O)OCC(O)CO` (stereo not drawn) [glycerol monooleate]: in data set [2], the cloud point came out at 25 °C.

The values are drawn from patent publication EP3406693B1, “FREEZER OIL FOR R32 REFRIGERANT AND COMPOSITION COMPRISING SAME” (NOF Corporation, priority 2016, dated 2017).
